Laboratory results reported in patent US9481669B2, “Pladienolide pyridine compounds and methods of use” (Eisai R&D Management Co., Ltd., priority 2014, dated 2016).

Legend:
[1] = tested on: Nalm-6 SF3B1^K700E isogenic cells (human pre B-cell line) xenograft; test: Nalm-6 SF3B1^K700E mouse xenograft efficacy model; format: in vivo, CB17-SCID mice; details: orally dosed daily for 14 days (QD×14 PO)
Procedure: The efficacy of Compound 2 was tested in a mouse xenograft model. Nalm-6 SF3B1^K700E isogenic cells (human pre B-cell line, 10×10^6 cells) were subcutaneously implanted into the flank of female CB17-SCID mice. Mice were treated with Compound 2 (10% ethanol, 5% TWEEN-80, 85% saline) or vehicle control. The animals were orally dosed daily for 14 days (QD×14 PO) at the amounts indicated in FIG. 2 and were monitored until they reached either of the following endpoints: 1) excessive tumor volume measured three times a week (tumor volume calculated by using the ellipsoid formula: (length×width^2)/2); or 2) development of any health problems such as paralysis or excessive body weight loss. All animal studies were carried out according to the H3 Biomedicine Guide for the Care and Use of Laboratory Animals.
The efficacy of Compound 1 was tested in a mouse xenograft model. […] The animals were orally dosed daily for 14 days (QD×14 PO) with 7.5 mg/kg or 10 mg/kg Compound 1 or vehicle and were monitored until they reached either of the following endpoints: 1) excessive tumor volume measured three times a week (tumor volume calculated by using the ellipsoid formula: (length×width^2)/2); or 2) development of any health problems such as paralysis or excessive body weight loss. […]

[2] = tested on: Panc 05.04 cancer cells (SF3B1^MUT) vs BXPC3, HPAFII, PANC0403, PANC1005, CFPAC1 and MIAPACA2; test: Cellular viability assay, mutant vs wild-type SF3B1 pancreatic cancer cell lines; format: cell-based; details: 72 hours at 37° C., 384-well plate
Procedure: To assess the viability of Panc 05.04 cancer cells (SF3B1^MUT) (Q699H and K700E mutations in SF3B1) in the presence of Compound 2, cells were seeded at 750 cells per well in a 384-well plate and treated with Compound 2 at the concentrations indicated in FIG. 4 for 72 hours at 37° C. The relative number of viable or apoptotic cells were measured by luminescence using CELLTITER-GLO® luminescent Cell Viability Assay (Promega).

[3] = tested on: alternative splicing in Nalm-6 isogenic cells; test: Alternative splicing modulation (nCounter Nanostring analysis); format: cell-based, human; details: 10×GI50 for 6 hours
Procedure: The “+” and “−” indicate positive or negative values, respectively, in the shade key, which indicates the varying levels of expression of the different splice junctions.
The modulation of alternative splicing for E7107 and Compound 2 was determined using the nCounter® analysis system (NanoString Techologies, Inc., Seattle, Wash.). Nalm-6 isogenic cells were treated with Compound 2 or E7107 (obtained from Eisai, Inc.) at 10×GI50 for 6 hours. RNA was isolated using RiboPure™ RNA purification kit (Ambion®) and used for analysis. The RNA was retrotranscribed according to the instructions of the SuperScript® VILO™ cDNA synthesis kit (Invitrogen™) and 0.04 μl of cDNA was used for qPCR.

Row | SMILES | efficacy / tumor growth in xenograft mouse model [1] | differential cellular lethality, mutant vs wild-type SF3B1 pancreatic cancer cell lines [2] | splicing modulation profile [3]
1 | C/C(=C\C=C\[C@@H](C)c1ccccn1)[C@H]1OC(=O)C[C@H](O)CC[C@@](C)(O)[C@@H](OC(=O)N2CCN(C3CCCCCC3)CC2)/C=C/[C@@H]1C [Compound 1, (2S,3S,6S,7R,10R,E)-7,10-dihydroxy-3,7-dimethyl-12-oxo-2-((R,2E,4E)-6-(pyridin-2-yl)hepta-2,4-dien-2-yl)oxacyclododec-4-en-6-yl 4-cycloheptylpiperazine-1-carboxylate] | efficacious when administered via the oral route and reduced tumor growth |  | 
2 | C/C(=C\C=C\[C@@H](C)c1ccccn1)[C@H]1OC(=O)C[C@H](O)CC[C@@](C)(O)[C@@H](OC(=O)N2CCN(C)CC2)/C=C/[C@@H]1C [Compound 2, (2S,3 S,6S,7R,10R,E)-7,10-dihydroxy-3,7-dimethyl-12-oxo-2-((R,2E,4E)-6-(pyridin-2-yl)hepta-2,4-dien-2-yl)oxacyclododec-4-en-6-yl 4-methylpiperazine-1-carboxylate] | efficacious when administered via the oral route and reduced tumor growth | differential cellular lethality in the mutant SF3B1 pancreatic cancer cell line over wild-type SF3B1 pancreatic cancer cell lines | distinct from the profile of E7107
